# Measurements as given in ChEMBL document CHEMBL1201862, “PubChem BioAssay data set” (2004).
# Activity calls are given as the source filed them.
# How the values were obtained:
# [1] = target: Eukaryotic translation initiation factor 4E (Mus musculus, UniProt P63073); test: blockers of eIF4G binding by eIF4E – biochemical, TR-FRET, dose response (AID 855); format: functional;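 also: potency for disrupting eIF4E binding to eIF4GI seen as loss of FRET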
# Leucine aminopeptidase = target: T1, Leucine aminopeptidase (Plasmodium falciparum 3D7, UniProt Q8IL11); test: P. falciparum M17LAP inhibitors, primary screen, biochemical, fluorogenic H-Leu-NHMec substrate, 1536-well (AID 1619); format: functional
# T1 sequence (Q8IL11 whole entry): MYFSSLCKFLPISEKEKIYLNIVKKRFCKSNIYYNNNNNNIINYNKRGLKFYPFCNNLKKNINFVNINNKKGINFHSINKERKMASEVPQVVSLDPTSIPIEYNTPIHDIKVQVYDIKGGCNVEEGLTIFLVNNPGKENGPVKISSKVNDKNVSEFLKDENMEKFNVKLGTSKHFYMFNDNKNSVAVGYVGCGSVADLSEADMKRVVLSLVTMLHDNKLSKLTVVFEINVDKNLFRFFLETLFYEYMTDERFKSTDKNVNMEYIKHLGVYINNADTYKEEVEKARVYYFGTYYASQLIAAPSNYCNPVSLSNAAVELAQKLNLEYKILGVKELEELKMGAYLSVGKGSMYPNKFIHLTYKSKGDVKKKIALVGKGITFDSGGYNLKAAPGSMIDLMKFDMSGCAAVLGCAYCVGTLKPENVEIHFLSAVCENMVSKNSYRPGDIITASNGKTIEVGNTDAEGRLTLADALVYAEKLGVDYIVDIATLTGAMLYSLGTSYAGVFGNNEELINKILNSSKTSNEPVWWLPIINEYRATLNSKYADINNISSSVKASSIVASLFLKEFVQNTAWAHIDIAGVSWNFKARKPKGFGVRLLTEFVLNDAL
# cells [2] = test: cells
# [3] = viability of uninfected HEp-2 cells – cell-based, HTS, cytotoxicity control for RSV inhibitor project, dose response (AID 2410); format: functional; settings: human respiratory syncytial virus
# Vero [4] = test: cells; format: functional, cell-based; settings: Chlorocebus sabaeus
# [5] = target: T2, Calpain-2 catalytic subunit (Sus scrofa, UniProt P43367); test: m-calpain protease blockers, concentration series – biochemical, fluorogenic peptide substrate, dose response (AID 1420); format: functional
# T2 sequence (P43367 whole entry): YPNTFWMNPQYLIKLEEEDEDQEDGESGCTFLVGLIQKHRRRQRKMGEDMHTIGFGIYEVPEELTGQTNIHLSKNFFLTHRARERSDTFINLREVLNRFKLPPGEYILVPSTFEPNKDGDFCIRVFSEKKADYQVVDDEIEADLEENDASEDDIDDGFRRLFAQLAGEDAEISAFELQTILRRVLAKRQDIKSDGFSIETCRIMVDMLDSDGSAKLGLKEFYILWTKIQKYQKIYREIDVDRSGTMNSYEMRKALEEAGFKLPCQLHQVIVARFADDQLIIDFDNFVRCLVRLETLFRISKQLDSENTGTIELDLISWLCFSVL
# Escherichia coli = test: microbe, parasite or virus in culture
# Vero [6] = test: cells; format: functional; settings: Chlorocebus sabaeus
# Aminopeptidase N = target: T3, Aminopeptidase N (Plasmodium falciparum FcB1/Columbia, UniProt O96935); test: malaria alanyl aminopeptidase activity blockers – biochemical, fluorogenic H-Leu-NHMec substrate, 1536-well (AID 1445); design: species or system Plasmodium falciparum 3D7, 3D7
# T3 sequence (O96935 whole entry): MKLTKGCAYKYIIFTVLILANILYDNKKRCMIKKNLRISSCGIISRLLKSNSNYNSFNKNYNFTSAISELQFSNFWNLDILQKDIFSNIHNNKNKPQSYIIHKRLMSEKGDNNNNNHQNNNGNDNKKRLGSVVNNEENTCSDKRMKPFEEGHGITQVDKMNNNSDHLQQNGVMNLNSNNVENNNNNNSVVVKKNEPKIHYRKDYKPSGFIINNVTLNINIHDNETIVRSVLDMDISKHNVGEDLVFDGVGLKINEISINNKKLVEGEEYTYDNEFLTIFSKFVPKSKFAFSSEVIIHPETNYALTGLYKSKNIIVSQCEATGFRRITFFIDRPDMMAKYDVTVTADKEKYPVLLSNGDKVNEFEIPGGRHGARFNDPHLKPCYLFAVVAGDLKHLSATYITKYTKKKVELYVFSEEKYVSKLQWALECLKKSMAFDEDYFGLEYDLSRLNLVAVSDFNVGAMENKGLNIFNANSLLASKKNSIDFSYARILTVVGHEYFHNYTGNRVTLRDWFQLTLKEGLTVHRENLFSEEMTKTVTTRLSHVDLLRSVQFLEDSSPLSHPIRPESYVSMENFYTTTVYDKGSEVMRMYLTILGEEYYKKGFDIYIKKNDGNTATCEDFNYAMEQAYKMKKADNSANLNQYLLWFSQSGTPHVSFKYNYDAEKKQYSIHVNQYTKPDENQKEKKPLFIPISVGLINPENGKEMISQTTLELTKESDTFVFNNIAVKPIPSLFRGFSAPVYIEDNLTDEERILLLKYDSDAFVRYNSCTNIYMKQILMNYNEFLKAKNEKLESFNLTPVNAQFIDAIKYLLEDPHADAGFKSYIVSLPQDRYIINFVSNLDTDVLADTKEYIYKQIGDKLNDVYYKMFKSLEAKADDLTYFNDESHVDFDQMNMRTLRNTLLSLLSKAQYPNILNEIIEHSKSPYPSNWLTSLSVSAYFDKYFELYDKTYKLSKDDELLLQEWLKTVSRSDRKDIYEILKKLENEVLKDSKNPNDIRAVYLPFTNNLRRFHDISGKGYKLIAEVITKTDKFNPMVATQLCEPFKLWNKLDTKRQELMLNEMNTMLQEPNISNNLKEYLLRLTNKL
# [7] = DRD fibroblast viability loss – cell-based, non-viral oncogenic, luminescence, dose response (AID 1934); format: functional; settings: Homo sapiens
# BJ [8] = test: BJ-TERT fibroblast viability loss – cell-based, RAS-independent, luminescence, dose response (AID 1933); format: functional; settings: Homo sapiens
# BJ [9] = test: cells; format: functional, cell-based, Homo sapiens; settings: Homo sapiens, BJ
# BJ [10] = test: BJ-TERT-LT-ST fibroblast viability loss – cell-based, RAS-independent, luminescence, dose response (AID 1935); format: functional; settings: Homo sapiens;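 also: BJ fibroblasts immortalized with TERT plus LT and ST oncogenes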
# [11] = HEK-293T viability loss after treatment – luminescence, T-cell screen hits, cytotoxicity control for TCR NF-kB inhibitor project, dose response (AID 489026); format: functional, cell-based;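 also: cells exposed to compound about 14 hours before the viability readout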
# INS1 = test: INS-1E survival protection against cytokine death – cell-based, luminescence, retest, dose response (AID 449756); format: functional; settings: Rattus norvegicus;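 also: cell death triggered by IL-1 beta plus TNF-alpha plus IFN-gamma mixture; protective hits raise ATP signal compared with cytokine alone wells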
# [12] = NIH-3T3 fibroblast cytotoxicity, dose response, cytotoxicity control, cell-based, fluorescence, Alamar Blue, secondary assay (AID 2327); format: functional;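 also: NIH-3T3 mouse fibroblasts cultured with fluconazole at 8 µg/mL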
# cells [13] = format: functional, cell-based
# HEK293 = test: EBV LMP1 TES2 canonical NF-kB signalling blockers – cell-based, HEK293, luciferase, cherry-pick, dose response (AID 588343); format: functional; settings: Homo sapiens
# cells [14] = format: functional, cell-based; remark: listed apart in the source
# [15] = fluconazole-exposed Candida albicans growth modulators – fluorescence, retest, confirmation (AID 2467); format: functional, cell-based
# Sequence of Eukaryotic translation initiation factor 4E (P63073 whole entry): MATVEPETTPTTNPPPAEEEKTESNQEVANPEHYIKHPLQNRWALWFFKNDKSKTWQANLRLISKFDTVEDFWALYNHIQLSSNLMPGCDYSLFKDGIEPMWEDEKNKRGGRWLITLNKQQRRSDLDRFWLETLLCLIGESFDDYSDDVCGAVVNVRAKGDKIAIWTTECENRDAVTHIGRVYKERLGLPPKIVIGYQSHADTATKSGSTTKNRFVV
smiles,measurement,setting,value
COc1cc(-c2[nH]ncc2CN2CCN(Cc3cccs3)CC2)cc(OC)c1OC,IC50,[1],50 µM (inactive)
Cc1ccc(C(C)C)c(OCc2nc(-c3nonc3N)no2)c1,IC50,[1],> 64 µM (inactive)
O=C(CSc1nnc[nH]1)Nc1ccc2c(c1)OCCO2,IC50,Leucine aminopeptidase,64.9 µM (active)
CCOC(=O)Cn1c(-c2nonc2NC(=O)c2ccccc2F)nc2ccccc21,IC50,cells [2],4.57 µM (active)
same,CC50,[3],> 6.25 µM (active)
same,IC50,Vero [4],0.98 µM (active)
CC(C)N(C(=O)c1sc2cc([N+](=O)[O-])ccc2c1Cl)C(C)C,IC50,[5],1.98 µM (not active)
Cc1ccccc1NC(=O)CCN1CCN(CCO)CC1,AC50,Escherichia coli,23.6 µM (active)
Cc1cnc(NC(=O)COc2cccc3c2OC(C)(C)C3)s1,IC50,cells [2],22.2 µM (active)
same,CC50,[3],30.2 µM (active)
same,CC50,Vero [6],> 25 µM (active)
same,IC50,Vero [4],13 µM (active)
CC(=O)c1cccc(NC(=O)c2nc(-c3ccccc3)oc2C)c1,IC50,[1],50 µM (inactive)
O=C(O)Cn1cc(/C=C2/SC(=O)N(CC(=O)N3CCCCCC3)C2=O)c2ccccc21,IC50,Aminopeptidase N,82.3 µM (active)
Cc1cccc(C)c1NC(=O)CSc1ncnc2nc[nH]c12,IC50,Leucine aminopeptidase,39.9 µM (active)
CCOC(=O)C1=C(NC(=S)NC(=O)c2ccccc2)c2ccccc2CC1C(C)C (stereo not given),IC50,cells [2],3.58 µM (active)
same,EC50,[7],60.6 µM (active)
same,EC50,BJ [8],> 150 µM (not active)
same,CC50,[3],9.61 µM (active)
same,EC50,BJ [9],54.1 µM (inconclusive)
same,CC50,Vero [6],> 25 µM (active)
same,IC50,Vero [4],9.18 µM (active)
same,EC50,BJ [10],> 150 µM (not active)
Cc1c(Cl)cccc1NC(=O)CCC(=O)NNC(=O)c1ccccc1Cl,IC50,[1],> 64 µM (inactive)
CCn1ncc(C2=NOC(C(=O)NCc3ccc(Cl)cc3)C2)c1C (stereo not given),IC50,[11],> 80 µM (inactive)
CC1CC(=O)N(CC(=O)Nc2ccc3c(c2)OCO3)c2ccccc2S1 (stereo not given),IC50,Leucine aminopeptidase,21.9 µM (active)
COc1ccccc1N1CCN(C(=O)CSc2nc(-c3ccccc3)cc(=O)[nH]2)CC1,IC50,Leucine aminopeptidase,16 µM (active)
Cc1ccc(C(C(=O)NC2CCCC2)N(C(=O)Cc2cccs2)c2ccc(C)c(C)c2)o1 (stereo not given),IC50,[5],10.9 µM (not active)
COc1cccc(/C=N/NC(=O)c2[nH]nc3c2CCc2ccccc2-3)c1O,AC50,INS1,0.796 µM (active)
same,EC50,[12],9.81 µM (active)
same,EC50,cells [13],9.85 µM (active)
same,AC50,HEK293,5.71 µM (active)
same,IC50,[11],54 µM (inactive)
same,EC50,cells [14],> 350 µM (not active)
same,EC50,[15],1.49 µM (active)
